Patent US6737383B1, “Herbicidal oxadiazolidines” (priority 1999, dated 2004)

Assays:
rice = test: Test B flood test rice; type: in vivo, Oryza sativa
In short: (§1)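 Each value is a visual injury score relative to controls, with 10 meaning complete control and 0 no effect. Evaluation took place twelve to sixteen days after the 2-leaf-stage plants were treated and kept in the greenhouse.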

corn = test: Test B pre/postemergence corn; type: in vivo, Zea mays
In short: (§2)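 Herbicidal effect was estimated by eye on a ten-point control scale after plants spent twelve to sixteen days in a greenhouse following soil or foliar treatment. Foliar sprays targeted plants at one to four leaves; all doses were formulated in a non-phytotoxic solvent with surfactant.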

velvetleaf = test: Test B pre/postemergence velvetleaf; type: in vivo, Abutilon theophrasti; settings: for Plant response rating, Velvetleaf: Rate 250 g/ha
In short: as §2

purple nutsedge = test: Test B pre/postemergence purple nutsedge; type: in vivo, Cyperus rotundus
In short: as §2

giant foxtail = test: Test B pre/postemergence giant foxtail; type: in vivo, Setaria faberii
In short: as §2

wild oat = test: Test B pre/postemergence wild oat; type: in vivo, Avena fatua; settings: for Plant response rating, Wild oats: Rate 250 g/ha
In short: as §2

duck salad = test: Test B flood test duck salad; type: in vivo, Heteranthera limosa
In short: as §1

soybean = test: Test B pre/postemergence soybean; type: in vivo, Glycine max
In short: as §2

smallflower flatsedge = test: Test B flood test smallflower flatsedge; type: in vivo, Cyperus difformis
In short: as §1

pigweed = test: Test B pre/postemergence pigweed; type: in vivo, Amaranthus retroflexus
In short: as §2

blackgrass = test: Test B pre/postemergence blackgrass; type: in vivo, Alopecurus myosuroides
In short: as §2

crabgrass = test: Test B pre/postemergence crabgrass; type: in vivo, Digitaria sanguinalis
In short: as §2

wheat = test: Test B pre/postemergence wheat; type: in vivo, Triticum aestivum; settings: for Plant response rating, Wheat: Rate 250 g/ha
In short: as §2

surinam grass = test: Test B pre/postemergence surinam grass; type: in vivo, Brachiaria decumbens
In short: as §2

morningglory = test: Test B pre/postemergence morningglory; type: in vivo, Ipomoea hederacea
In short: as §2

bedstraw = test: Test B pre/postemergence bedstraw; type: in vivo, Galium aparine
In short: as §2

[1] = Postemergence (flood test species), Rate 125 g/ha, scale of 0 to 10 where 0 is no effect and 10 is complete control
[2] = Rate 62 g/ha, Postemergence section, flood test species, scale of 0 to 10 where 0 is no effect and 10 is complete control
[3] = Rate 250 g/ha, Postemergence (flood test), scale 0 to 10, 0 is no effect, 10 is complete control
[4] = Rate 250 g/ha, headed Pre-emergence (flood test species), scale 0 to 10 (0 no effect, 10 complete control)
[5] = Rate 500 g/ha, headed Pre-emergence (flood test species), scale 0 to 10 (0 no effect, 10 complete control)
[6] = Rate 500 g/ha, listed under Postemergence (flood test species), scale 0 to 10, 0 no effect, 10 complete control
[7] = Rate 1000 g/ha, Pre-emergence (as headed), scale 0 to 10
[8] = Rate 2000 g/ha, Pre-emergence (as headed), scale 0 to 10
[9] = Postemergence, Rate 125 g/ha, scale of 0 to 10 where 0 is no effect and 10 is complete control
[10] = Postemergence, Rate 250 g/ha, scale 0 to 10, 0 no effect, 10 complete control
[11] = Preemergence, Rate 62 g/ha, scale 0 to 10 (0 no effect, 10 complete control)
[12] = Preemergence, Rate 125 g/ha, scale 0 to 10 (0 no effect, 10 complete control)
[13] = Preemergence, Rate 250 g/ha, scale of 0 to 10 where 0 is no effect and 10 is complete control
[14] = Preemergence, Rate 500 g/ha, scale 0 to 10 (0 no effect, 10 complete control)
[15] = Rate 62 g/ha, Postemergence, scale of 0 to 10 where 0 is no effect and 10 is complete control
[16] = Rate 500 g/ha, Postemergence, scale 0 to 10, 0 no effect, 10 complete control
[17] = Preemergence, Rate 125 g/ha, 0 is no effect, 10 is complete control
[18] = Preemergence, scale of 0 to 10 where 0 is no effect and 10 is complete control
[19] = Postemergence, scale 0 to 10, 0 is no effect, 10 is complete control
[20] = Rate 250 g/ha, Postemergence, scale 0 to 10, 0 is no effect, 10 is complete control
[21] = Postemergence, Rate 62 g/ha, scale 0 to 10, 0 is no effect, 10 is complete control
[22] = Rate 125 g/ha, Postemergence, scale 0 to 10, 0 no effect, 10 complete control

CCn1c(=O)on(C(=O)N(c2ccccc2)C(C)C)c1=O [Compound 117]
2: Plant response rating, Corn (corn; [12]) | Nutsedge plant response rating (purple nutsedge; [15]) | Soybean plant response rating (soybean; [15]) | Wheat plant response rating (wheat; [11]) | Wheat plant response rating (wheat; [15]) | Plant response rating, Morningglory (morningglory; [13]) | Morningglory plant response rating (morningglory; [15]) | Bedstraw plant response rating (bedstraw; [10])
5: Corn plant response rating (corn; [9]) | Soybean plant response rating (soybean; [9]) | Plant response rating, Soybean (soybean; [20])
4: Plant response rating, Wild oats (wild oat; [19]) | S. Flatsedge plant response rating (smallflower flatsedge; [8]) | Wheat plant response rating (0 to 10 scale) (wheat; [17])
9: Corn plant response rating (corn; [14]) | Giant foxtail plant response rating (giant foxtail; [9]) | Giant foxtail plant response rating (giant foxtail; [10]) | Giant foxtail plant response rating (giant foxtail; [15]) | Giant foxtail plant response rating (giant foxtail; [16]) | Soybean plant response rating (soybean; [14]) | Redroot pigweed plant response rating (pigweed; [11]) | Blackgrass plant response rating (blackgrass; [9]) | Blackgrass plant response rating (blackgrass; [10]) | Blackgrass plant response rating (blackgrass; [16]) | Crabgrass plant response rating (crabgrass; [9]) | Crabgrass plant response rating (crabgrass; [10]) | Crabgrass plant response rating (crabgrass; [11]) | Crabgrass plant response rating (crabgrass; [15]) | Crabgrass plant response rating (crabgrass; [16]) | B. signalgrass plant response rating (surinam grass; [10]) | Plant response rating, B. signalgrass (surinam grass; [12]) | Plant response rating, B. signalgrass (surinam grass; [13]) | B. signalgrass plant response rating (surinam grass; Rate 500 g/ha, Postemergence, scale of 0 to 10 where 0 is no effect and 10 is complete control)
8: Velvetleaf plant response rating (0 to 10 scale) (velvetleaf; [17]) | Velvetleaf plant response rating (velvetleaf; [16]) | Wild oats plant response rating (wild oat; [16]) | Plant response rating, Soybean (soybean; [12]) | Plant response rating, Soybean (soybean; [13]) | Blackgrass plant response rating (blackgrass; [11]) | Plant response rating, Blackgrass (blackgrass; [12]) | Blackgrass plant response rating (blackgrass; [15]) | Wheat plant response rating (wheat; [14]) | Wheat plant response rating (wheat; [16]) | B. signalgrass plant response rating (surinam grass; [22])
1: Ducksalad plant response rating (duck salad; [8])
3: Velvetleaf plant response rating (velvetleaf; [9]) | Plant response rating, Nutsedge (purple nutsedge; [13]) | Wild oats plant response rating (wild oat; [9]) | Wild oats plant response rating (wild oat; [11])
0: Rice plant response rating (rice; [1]) | Rice plant response rating (rice; [2]) | Plant response rating, Rice (rice; [3]) | Rice plant response rating (rice; [4]) | Plant response rating, Rice (rice; [5]) | Rice plant response rating (rice; [6]) | Rice plant response rating (rice; [7]) | Rice plant response rating (rice; [8]) | Corn plant response rating (corn; [11]) | Corn plant response rating (corn; [15]) | Velvetleaf plant response rating (velvetleaf; [15]) | Nutsedge plant response rating (purple nutsedge; [11]) | Plant response rating, Nutsedge (purple nutsedge; [12]) | Wild oats plant response rating (wild oat; [15]) | Ducksalad plant response rating (duck salad; [1]) | Ducksalad plant response rating (duck salad; [2]) | Ducksalad plant response rating (duck salad; [4]) | Plant response rating, Ducksalad (duck salad; [5]) | Ducksalad plant response rating (duck salad; [6]) | Ducksalad plant response rating (duck salad; [7]) | Ducksalad plant response rating (duck salad; flood test, listed under Postemergence, Rate 250 g/ha, scale 0 to 10, 0 no effect, 10 complete control) | Soybean plant response rating (soybean; [11]) | S. Flatsedge plant response rating (smallflower flatsedge; [1]) | S. Flatsedge plant response rating (smallflower flatsedge; Pre-emergence, Rate 1000 g/ha, scale 0 to 10 (0 no effect, 10 complete control)) | S. Flatsedge plant response rating (smallflower flatsedge; [2]) | Plant response rating, S. Flatsedge (smallflower flatsedge; [3]) | S. Flatsedge plant response rating (smallflower flatsedge; [4]) | Plant response rating, S. Flatsedge (smallflower flatsedge; [5]) | S. Flatsedge plant response rating (smallflower flatsedge; [6]) | Redroot pigweed plant response rating (pigweed; [9]) | Redroot pigweed plant response rating (pigweed; [15]) | Plant response rating, Redroot pigweed (pigweed; [20]) | Morningglory plant response rating (morningglory; [11]) | Plant response rating, Morningglory (morningglory; [12]) | Bedstraw plant response rating (bedstraw; [21]) | Bedstraw plant response rating (bedstraw; [11]) | Plant response rating, Bedstraw (bedstraw; [12]) | Plant response rating, Bedstraw (bedstraw; [13]) | Bedstraw plant response rating (bedstraw; [14]) | Bedstraw plant response rating (bedstraw; [22])
7: Plant response rating, Corn (corn; [13]) | Corn plant response rating (corn; [16]) | Nutsedge plant response rating (purple nutsedge; [9]) | Nutsedge plant response rating (purple nutsedge; [10]) | Nutsedge plant response rating (purple nutsedge; [14]) | Nutsedge plant response rating (purple nutsedge; [16]) | Soybean plant response rating (soybean; [16]) | Plant response rating, Wheat (wheat; [18]) | Morningglory plant response rating (morningglory; [9]) | Morningglory plant response rating (morningglory; [10])
6: Corn plant response rating (corn; [10]) | Velvetleaf plant response rating (velvetleaf; [11]) | Plant response rating, Velvetleaf (velvetleaf; [19]) | Wild oats plant response rating (0 to 10 scale) (wild oat; [17]) | Redroot pigweed plant response rating (pigweed; [16]) | Wheat plant response rating (wheat; [9]) | Plant response rating, Wheat (wheat; [19]) | B. signalgrass plant response rating (surinam grass; [21]) | B. signalgrass plant response rating (surinam grass; [11]) | Morningglory plant response rating (morningglory; [14])
10: Plant response rating, Velvetleaf (velvetleaf; [18]) | Velvetleaf plant response rating (velvetleaf; [14]) | Giant foxtail plant response rating (giant foxtail; [11]) | Plant response rating, Giant foxtail (giant foxtail; [12]) | Plant response rating, Giant foxtail (giant foxtail; [13]) | Giant foxtail plant response rating (giant foxtail; [14]) | Plant response rating, Wild oats (wild oat; [18]) | Wild oats plant response rating (wild oat; [14]) | Plant response rating, Redroot pigweed (pigweed; [12]) | Plant response rating, Redroot pigweed (pigweed; [13]) | Redroot pigweed plant response rating (pigweed; [14]) | Plant response rating, Blackgrass (blackgrass; [13]) | Blackgrass plant response rating (blackgrass; [14]) | Plant response rating, Crabgrass (crabgrass; [12]) | Plant response rating, Crabgrass (crabgrass; [13]) | Crabgrass plant response rating (crabgrass; [14]) | B. signalgrass plant response rating (surinam grass; [14]) | Morningglory plant response rating (morningglory; [16])
